# From patent publication US11273126B2, “Amorphous dispersion of cyclopropanecarboxylic acid (5-{5-[N′-(2-chloro-6-methylbenzoyl) hydrazinocarbonyl]-2-methyl-phenylethynyl}-pyridin-2-yl) amide” (SUN PHARMA ADVANCED RESEARCH COMPANY LIMITED, priority 2017, dated 2022)
# Assay: Oral administration to dogs, plasma levels of compound of formula I (bioavailability)
# Assay type: in vivo
# Details: dog, plasma level of compound of formula I
# Experimental: Suitable amount of amorphous dispersion of Example I and the crystalline form of compound of formula I suspended in a vehicle were administered orally to dogs. Blood samples were withdrawn at various time intervals and the plasma levels of compound of formula I were recorded. The Cmax, AUC0 to 1 and AUC0-∞, in plasma are tabulated below.
smiles,measurement,value
"Cc1ccc(C(=O)NNC(=O)c2c(C)cccc2Cl)cc1C#Cc1ccc(NC(=O)C2CC2)nc1 [Compound of formula I in a vehicle, cyclopropanecarboxylic acid (5-{5-[N′-(2-chloro-6-methylbenzoyl) hydrazinocarbonyl]-2-methyl-phenylethynyl}-pyridin-2-yl)amide]",AUC(0-inf),388 ng·h/mL
same,AUC(0-t),290 ng·h/mL
same,Cmax,41 ng/mL
